The results in this text go back to ChEMBL document CHEMBL1131036, “Structure-based design, synthesis, and biological evaluation of irreversible human rhinovirus 3C protease inhibitors. 1. Michael acceptor structure-activity studies” (J Med Chem, 1998).

The test system of series [1] is HeLa. Nature of the series: Concentration of compound that decreased the percentage of formazan production in treated HRV-14 virus infected cells to that produced in uninfected cells. Type of series: functional. The conditions noted are these: Homo sapiens.
For series [2], the system named is Human rhinovirus sp. Nature of the series: Inhibitory activity of compound towards partial or complete loss of 3C protease (HRV-14) activity in presence of 5 mM dithiothreitol (DTT); inhibition observed. Format: functional, organism-based.
For series [3], the system named is HeLa. Nature of the series: Formazan production in HRV-14 virus infected cells. Format: functional, cell-based. The conditions noted are these: Homo sapiens.
Series [4] addresses T1, Human rhinovirus A protease (Human rhinovirus sp.) (UniProt Q4U254).
T1 sequence (whole entry): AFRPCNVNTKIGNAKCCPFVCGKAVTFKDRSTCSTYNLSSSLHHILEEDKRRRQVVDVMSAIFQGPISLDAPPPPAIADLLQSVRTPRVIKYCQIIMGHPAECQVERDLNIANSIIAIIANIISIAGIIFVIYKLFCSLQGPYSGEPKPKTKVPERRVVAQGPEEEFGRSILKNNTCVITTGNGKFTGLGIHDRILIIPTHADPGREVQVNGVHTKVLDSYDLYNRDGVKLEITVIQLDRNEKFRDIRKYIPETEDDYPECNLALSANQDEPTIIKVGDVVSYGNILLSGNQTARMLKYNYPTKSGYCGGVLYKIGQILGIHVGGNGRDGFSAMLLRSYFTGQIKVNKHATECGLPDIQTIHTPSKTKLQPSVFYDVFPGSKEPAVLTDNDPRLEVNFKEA
Nature of the series: Catalytic rate constant (Kobs/[I]) evaluated against human rhinovirus (HRV) serotype 14 3C Protease (3CP). The conditions noted are these: Human rhinovirus B (HRV-14).

Series [5] concerns Human rhinovirus sp. Nature of the series: Inhibitory activity of compound towards partial or complete loss of 3C protease (HRV-14) activity in presence of 5 mM dithiothreitol (DTT); No inhibition. Type of series: functional, organism-based.
Series [6] in a line: Half-life in rat plasma. Format: ADME, organism-based.
Series [7] addresses T1, Human rhinovirus A protease (Human rhinovirus sp.). Nature of the series: Catalytic rate constant (Kobs/[I]) was evaluated against human rhinovirus (HRV) serotype 16 3C Protease (3CP).
For series [8] the target is unchanged. Nature of the series: Catalytic rate constant (Kobs/[I]) was evaluated against human rhinovirus (HRV) serotype 2 3C Protease (3CP).
Series [9] deals with HeLa. Nature of the series: Concentration of compound that increased the percentage of formazan production in HRV-2 virus infected cells to that of untreated control cells. Format: functional, cell-based. The conditions noted are these: Homo sapiens.
Series [10] has as its system HeLa. Nature of the series: Concentration of compound that increased the percentage of formazan production in HRV-16 virus infected cells to that of untreated control cells. Format: functional, cell-based. The conditions noted are these: Homo sapiens.

Each structure is given as a SMILES string. pEC50: −log10 of the molar value. Activity calls are given as the source filed them. The calls are words filed in the database; no cut-off is given here. Some results are limits rather than exact numbers.

As to `CC(C)C[C@H](NC(=O)OCc1ccccc1)C(=O)N[C@@H](Cc1ccccc1)C(=O)N[C@H](/C=C/C(=O)N1CCN(C)C1=O)CCC(N)=O`, the CC50 in the series on HeLa [1] was > 320 µM. In addition, the inhibition result with Human rhinovirus sp. [2] is “Yes”. For the same compound, in the series on HeLa [3], the pEC50 was 5.30. The compound also had a K obs / 1 in series [4] of 312000 M⁻¹ s⁻¹.
Consider `CC(C)C[C@H](NC(=O)OCc1ccccc1)C(=O)N[C@@H](Cc1ccccc1)C(=O)N[C@H](/C=C/C(=O)N1CCc2ccc([N+](=O)[O-])cc21)CCC(N)=O`, for which the CC50 with HeLa [1] is > 320 µM. Moreover, the inhibition result in the series with Human rhinovirus sp. [5] is “inactive”. Moreover, the pEC50 in the series with HeLa [3] was < 3.49. The K obs / 1 in series [4] turned out to be 29000 M⁻¹ s⁻¹.
Regarding `CC(C)C[C@H](NC(=O)OCc1ccccc1)C(=O)N[C@@H](Cc1ccccc1)C(=O)N[C@H](/C=C/C(=O)c1ccco1)CCC(N)=O`, the midpoint of cytotoxicity in the series with HeLa [1], the CC50, lay at 19 µM. For the same compound, in the series with Human rhinovirus sp. [2], the inhibition result is “Yes”. The compound also had a pEC50 in the series with HeLa [3] of 5.62. Also, in series [4], the K obs / 1 amounted to 460000 M⁻¹ s⁻¹.
As for `CC(C)C[C@H](NC(=O)OCc1ccccc1)C(=O)N[C@@H](Cc1ccccc1)C(=O)N[C@H](/C=C/C(=O)N1CCc2ccccc21)CCC(N)=O`, in the series on HeLa [1], the CC50 is > 320 µM. This compound also showed a pEC50 in the series with HeLa [3] of 4.80. The same compound had a K obs / 1 in series [4] of 6500 M⁻¹ s⁻¹. In [6], the half-life is > 80 min.
Consider `CC(C)C[C@H](NC(=O)OCc1ccccc1)C(=O)N[C@@H](Cc1ccccc1)C(=O)N[C@H](/C=C/C(=O)N1CCCC1=O)CCC(N)=O`, for which, in the series with HeLa [1], the CC50 was > 320 µM. The inhibition entry in the series with Human rhinovirus sp. [2] was “Yes”. Besides, the pEC50 in the series with HeLa [3] was 6.05. Further, the K obs / 1 in series [4] turned out to be 126000 M⁻¹ s⁻¹.
With `CC(=O)N1CC/C(=C\[C@H](CCC(N)=O)NC(=O)[C@H](Cc2ccccc2)NC(=O)[C@H](CC(C)C)NC(=O)OCc2ccccc2)C1=O`, the CC50 in the series on HeLa [1] was > 100 µM. In the series on HeLa [3], the pEC50 was 6.15. In addition, the K obs / 1 stood at 156000 M⁻¹ s⁻¹ in series [4], 39000 M⁻¹ s⁻¹ in series [7] and 13000 M⁻¹ s⁻¹ in series [8].
With `CC(C)C[C@H](NC(=O)OCc1ccccc1)C(=O)N[C@@H](Cc1ccccc1)C(=O)N[C@H](/C=C/C(=O)N1CCc2ccc(S(=O)(=O)N(C)C)cc21)CCC(N)=O`, the inhibition entry with Human rhinovirus sp. [5] is “inactive”. Also, the pEC50 in the series on HeLa [3] was < 4.00. In series [4], this compound had a K obs / 1 of 28300 M⁻¹ s⁻¹.
Take `CCOC(=O)/C=C/[C@H](CCC(N)=O)NC(=O)[C@H](Cc1ccccc1)NC(=O)[C@H](CC(C)C)NC(=O)OCc1ccccc1`: the CC50 with HeLa [1] was > 320 µM. For the same compound, the pEC50 in the series on HeLa [9] was 5.80; in the series with HeLa [3], 6.27; in the series on HeLa [10], 5.64. For the same compound, in series [6], the half-life was found to be 10 min.
With `CC(=O)/C=C/[C@H](CCC(N)=O)NC(=O)[C@H](Cc1ccccc1)NC(=O)[C@H](CC(C)C)NC(=O)OCc1ccccc1`, the CC50 with HeLa [1] worked out at 60 µM. Also, the pEC50 in the series with HeLa [3] is 5.70. In addition, the K obs / 1 in [4] is 54000 M⁻¹ s⁻¹; in series [7], 8900 M⁻¹ s⁻¹; in [8] it was 2700 M⁻¹ s⁻¹.
Take `CC(C)C[C@H](NC(=O)OCc1ccccc1)C(=O)N[C@@H](Cc1ccccc1)C(=O)N[C@H](/C=C/C(=O)N1CCc2cc([N+](=O)[O-])ccc21)CCC(N)=O`: the CC50 in the series on HeLa [1] was > 320 µM. Further, in the series on Human rhinovirus sp. [5], the inhibition result is “inactive”. The compound further had a pEC50 in the series with HeLa [3] of 4.77. In series [4], this compound came in with a K obs / 1 of 12000 M⁻¹ s⁻¹.
With `CC(C)C[C@H](NC(=O)OCc1ccccc1)C(=O)N[C@@H](Cc1ccccc1)C(=O)N[C@H](/C=C1\CCOC1=O)CCC(N)=O`, in the series with HeLa [1], the CC50 is > 320 µM. The pEC50 in the series with HeLa [3] was 5.28. The K obs / 1 in series [4] came out at 10900 M⁻¹ s⁻¹. Further, the half-life in [6] is > 240 min.
Taken in the same sequence, the figures for `CON(C)C(=O)/C=C/[C@H](CCC(N)=O)NC(=O)[C@H](Cc1ccccc1)NC(=O)[C@H](CC(C)C)NC(=O)OCc1ccccc1` were > 100 µM, 5.40, 5900 M⁻¹ s⁻¹ and 12 min.
Taken in the same sequence, the figures for `CCOC(=O)/C(C)=C/[C@H](CCC(N)=O)NC(=O)[C@H](Cc1ccccc1)NC(=O)[C@H](CC(C)C)NC(=O)OCc1ccccc1` were > 320 µM, 5.52, 7300 M⁻¹ s⁻¹ and 20 min.
For `CC(C)C[C@H](NC(=O)OCc1ccccc1)C(=O)N[C@@H](Cc1ccccc1)C(=O)N[C@H](/C=C/C(=O)c1ccc([N+](=O)[O-])cc1)CCC(N)=O`, the midpoint of cytotoxicity in the series on HeLa [1], the CC50, lay at 32 µM. The same compound had a pEC50 in the series on HeLa [3] of 4.49. In addition, in series [4], the K obs / 1 worked out at 310000 M⁻¹ s⁻¹.
Taken in the same sequence, the figures for `CC(C)C[C@H](NC(=O)OCc1ccccc1)C(=O)N[C@@H](Cc1ccccc1)C(=O)N[C@H](/C=C/C(=O)OC1CCCC1)CCC(N)=O` were > 100 µM, 6.25 and 14600 M⁻¹ s⁻¹.
In turn, `CC(C)C[C@H](NC(=O)OCc1ccccc1)C(=O)N[C@@H](Cc1ccccc1)C(=O)N[C@H](/C=C/[N+](=O)[O-])CCC(N)=O` yielded a CC50 in the series with HeLa [1] of 100 µM. The inhibition entry in the series on Human rhinovirus sp. [2] was “Yes”. The pEC50 in the series on HeLa [3] is < 4.00. The compound also had a K obs / 1 in series [4] of 500000 M⁻¹ s⁻¹.
Regarding `COC(=O)/C=C\[C@H](CCC(N)=O)NC(=O)[C@H](Cc1ccccc1)NC(=O)[C@H](CC(C)C)NC(=O)OCc1ccccc1`, the CC50 in the series with HeLa [1] is > 320 µM. The pEC50 with HeLa [3] is 5.49. In addition, the K obs / 1 in series [4] stood at 2400 M⁻¹ s⁻¹.
Turning to `CC(C)C[C@H](NC(=O)OCc1ccccc1)C(=O)N[C@@H](Cc1ccccc1)C(=O)N[C@H](/C=C/C(=O)N1CCOC1=O)CCC(N)=O`, the CC50 in the series on HeLa [1] is > 100 µM. Moreover, in the series on Human rhinovirus sp. [2], the inhibition entry is “Yes”. The pEC50 in the series with HeLa [3] was 5.80. Further, the K obs / 1 in series [4] worked out at 600000 M⁻¹ s⁻¹.
On to `CON1CC/C(=C\[C@H](CCC(N)=O)NC(=O)[C@H](Cc2ccccc2)NC(=O)[C@H](CC(C)C)NC(=O)OCc2ccccc2)C1=O`, for which the CC50 with HeLa [1] is > 100 µM. The pEC50 in the series with HeLa [3] is 4.74. In series [4], this compound showed a K obs / 1 of 800 M⁻¹ s⁻¹.
Take `CC(C)C[C@H](NC(=O)OCc1ccccc1)C(=O)N[C@@H](Cc1ccccc1)C(=O)N[C@H](/C=C/C(=O)OC1CCCCC1)CCC(N)=O`: the CC50 in the series with HeLa [1] is > 320 µM. Besides, in the series on HeLa [3], the pEC50 is 5.44. This compound came in with a K obs / 1 in series [4] of 3700 M⁻¹ s⁻¹. This compound also returned a half-life in [6] of 4 min.
`CC(C)C[C@H](NC(=O)OCc1ccccc1)C(=O)N[C@@H](Cc1ccccc1)C(=O)N[C@H](/C=C/S(=O)(=O)c1ccccc1)CCC(N)=O`: the CC50 in the series on HeLa [1] is > 320 µM. The same compound had a pEC50 in the series with HeLa [3] of 3.70. Besides, the K obs / 1 in series [4] stood at 270 M⁻¹ s⁻¹.
Taken in the same sequence, the figures for `CC(C)C[C@H](NC(=O)OCc1ccccc1)C(=O)N[C@@H](Cc1ccccc1)C(=O)N[C@H](/C=C/C(=O)N1CCc2cc(Cl)ccc21)CCC(N)=O` were 56 µM, 5.25 and 450 M⁻¹ s⁻¹.
Compound `CC(C)C[C@H](NC(=O)OCc1ccccc1)C(=O)N[C@@H](Cc1ccccc1)C(=O)N[C@H](/C=C/C(=O)N(C)O)CCC(N)=O` yielded a CC50 with HeLa [1] of 42 µM. This compound gave a pEC50 in the series on HeLa [3] of 4.38. The compound also had a K obs / 1 in series [4] of 1800 M⁻¹ s⁻¹.
Taken in the same sequence, the figures for `CC(C)C[C@H](NC(=O)OCc1ccccc1)C(=O)N[C@@H](Cc1ccccc1)C(=O)N[C@H](/C=C/C(=O)C(C)(C)C)CCC(N)=O` were 5.6 µM, 5.77 and 15000 M⁻¹ s⁻¹.
`CC(C)C[C@H](NC(=O)OCc1ccccc1)C(=O)N[C@@H](Cc1ccccc1)C(=O)N[C@H](/C=C/C(=O)N1CCCC1)CCC(N)=O`: the CC50 in the series with HeLa [1] is > 100 µM. Besides, the pEC50 in the series with HeLa [3] is 4.66. Also, the K obs / 1 in series [4] is 2100 M⁻¹ s⁻¹.
